Laboratory results taken from patent US8487090B2, “Water solution of 20(R)-ginsenoside Rg3 pharmaceutical composition and process thereof” (Dalian Fusheng Natural Medicine Development Co., Ltd., priority 2006, dated 2013).
Read-outs that look alike come from different tables or passages of the source. Marks after values point to notes of the source that are not given here.

Columns and labels:
[1] = cited from earlier work
[2] = Chemotherapy toxicity attenuation bioassay, blood counts; type: in vivo, mouse; settings: Heps bearing mice
[3] = tested on: mouse liver cancer model (Heps); experiment: Chemotherapy efficacy potentiation bioassay, tumor weight; type: in vivo
Description: Take strongly growing tumor cells under sterile condition, and prepare it into a cell suspension with a density of about 1˜2×10^7 cells/ml by a homogenate method. Inoculate 0.2 ml/mouse of the cell suspension subcutaneously into the armpit of the axillary host. Administrate the test drug next day according to the experimental design protocol. Euthanize each group animal after ˜3 weeks and remove the tumor from mice and weigh it. Calculate the tumor inhibition percentage by the following formula: Tumor inhibition percentage (%)=[(mean tumor weight of control group−mean tumor weight of treatment group)/mean tumor weight of control group]×100% 5.2.2 Caudal Vein Inoculation Model

[4] = tested on: Human Gastric Cancer MGC Model; experiment: Stomach in situ inoculation model, survival; type: in vivo, nude mice; settings: 30 mg/kg/d ip × 7 qd
Description: (§1) Take intravenous administration, twice per day. For mice models inoculated with human tumor models and cells, continue injection for seven days; for mice models inoculated with mouse tumor cells, continue injection for five days.
(§2) Positive controls: CTX, 30 mg/kg; MMC, 2 mg/kg; 5Fu, 30 mg/kg; intraperitoneal or intravenous injection, once daily, continues for 7 days.
Take strongly growing in-vivo 2nd-generation MGC stomach cancer (cells) under sterile condition, and prepare it into a cell suspension with a density of 2×10^7 cells/ml by a homogenate method. Inject 0.05 ml of the cell suspension into the muscular layer of greater curvature of stomach of the nude mice via a surgery operation. Administrate the above mice with test drug next day according to the experimental design protocol, and calculate the life extension percentage of the tumor bearing host: Life extension percentage (%)=(mean survival days of treatment group/mean survival days of control)×100% 5.1.2 Liver In Situ Inoculation Model

[5] = tested on: Human Intestine Cancer LOVO Model; experiment: Efficacy bioassay on intestine cancer model, survival; type: in vivo, nude mice; settings: 30 mg/kg/d ip × 7 qd
Excerpt: Human intestine cancer LOVO model, human stomach cancer MGC model, and human liver cancer QGY model, all tumor strains are in vivo subcultured for more than 2nd generation. Mouse melanoma B16 cell are subcultured and maintained by Pharmacology Department of Shanghai Institute of Pharmaceutical Industry.
as §1, §2

[6] = type: in vivo, C57BL/6 mouse; settings: for Body Weight of Animals (g) End: Table 5
Description: (§3) Mouse B16 melanoma cells in logarithmic growth phase are taken out under sterile condition, and a cell suspension with a density of about 2.5×10^5 cells/ml is prepared. Inoculate 0.2 ml/mouse of cell suspension into caudal vein of C57BL/6 mouse. Administrate the test drug next day according to the experimental design protocol, euthanize the animal after ˜3 weeks and remove the lungs from mice and count the metastatic colony in the lungs of each mouse. Calculate the tumor inhibition percentage based on the group mean colony by the following formula: Tumor inhibition percentage (%)=[(mean colony of control group−mean colony of treatment group)/mean colony of control group]×100% 5.3 Antineoplastic Toxicity Attenuation Bioassay

[7] = tested on: Mouse Melanoma B16 Model; experiment: Caudal vein inoculation model, lung metastatic colonies; type: in vivo, C57BL/6 mouse
Description: as §1, §2, §3

[8] = tested on: Human Liver Cancer QGY Model; experiment: Liver in situ inoculation model, survival; type: in vivo, nude mice; settings: 30 mg/kg/d ip × 7 qd
Description: as §1, §2

**Q.** Which solubility in water [1] does the source give for `CC(C)=CCC[C@](C)(O)[C@H]1CC[C@]2(C)[C@@H]1[C@H](O)C[C@@H]1[C@@]3(C)CC[C@H](O[C@@H]4O[C@H](CO)[C@@H](O)[C@H](O)[C@H]4O[C@@H]4O[C@H](CO)[C@@H](O)[C@H](O)[C@H]4O)C(C)(C)[C@@H]3CC[C@]12C` [20(R)-ginsenoside Rg3] here?
**A.** insoluble in water

**Q.** With `O=c1[nH]c(=O)n([C@H]2C[C@H](O)[C@@H](CO)O2)cc1F` [Example 5Fu, 5-Fluorodeoxyuridine] as the compound, how does the “Hb” value ([2]; 25 × 3 mg/kg/d) read?
**A.** 90 ± 13.0 g/L

**Q.** What about the “RBC 10^12/L” value ([2]; 25 × 3 mg/kg/d) of the same compound?
**A.** 3.1 ± 0.4 10^12/L

**Q.** And the “WBC (10^9/L)” value ([2]; 25 × 3 mg/kg/d)?
**A.** 3.9 ± 0.3** 10^9/L

**Q.** What about the “Mean Tumor weight (g, mean ± SD)” value ([3]; 25 × 3 mg/kg/d) of the same compound?
**A.** 1.08 ± 0.34 g

**Q.** And the “Tumor Inhibition Percentage (%)” value ([3]; 25 × 3 mg/kg/d)?
**A.** 41.30%

**Q.** With `CC(C)=CCC[C@](C)(O)[C@H]1CC[C@]2(C)[C@@H]1[C@H](O)C[C@@H]1[C@@]3(C)CC[C@H](O[C@@H]4O[C@H](CO)[C@@H](O)[C@H](O)[C@H]4O[C@@H]4O[C@H](CO)[C@@H](O)[C@H](O)[C@H]4O)C(C)(C)[C@@H]3CC[C@]12C` [20(S)-ginsenoside Rg3] as the compound, how does the solubility in water [1] read?
**A.** easily dissolvable in water

**Q.** What does the source list for `CN(Cc1cnc2nc(N)nc(N)c2n1)c1ccc(C(=O)N[C@@H](CCC(=O)O)C(=O)O)cc1` [MTX]?
**A.** Hb ([2]; 5 × 3 mg/kg/d): 51 ± 1.0 g/L; RBC 10^12/L ([2]; 5 × 3 mg/kg/d): 1.8 ± 0.1** 10^12/L; WBC (10^9/L) ([2]; 5 × 3 mg/kg/d): 1.6 ± 0.1** 10^9/L; Mean Tumor weight (g, mean ± SD) ([3]; 5 × 3 mg/kg/d): 0.27 ± 0.01 g; Tumor Inhibition Percentage (%) ([3]; 5 × 3 mg/kg/d): 85.32%

**Q.** Which results are given for `O=P1(N(CCCl)CCCl)NCCCO1` (stereo not shown) [CTX, Cyclophosphamide]?
**A.** Life Extension Percentage T/C × % [4]: 181.02%; Mean Survival Time (d) mean ± SD [4]: 41.20 ± 3.8 days; Hb ([2]; 10 × 3 mg/kg/d): 82 ± 8.4 g/L; RBC 10^12/L ([2]; 10 × 3 mg/kg/d): 2.8 ± 0.3** 10^12/L; WBC (10^9/L) ([2]; 10 × 3 mg/kg/d): 3.2 ± 0.5** 10^9/L; Life Extension Percentage T/C × % [5]: 214.71%; Mean Survival Time (d) mean ± SD [5]: 29.20 ± 4.8 days; Body Weight of Animals (g) end ([6]; Table 2, 100 mg/kg/d ip × 2 qd): 19.8/22.6 g; Body Weight of Animals (g) End ([6]; 15 mg/kg/d ip × 7 qd): 20.2/24.7 g; Body Weight of Animals (g) End ([6]; 30 mg/kg/d ip × 7 qd): 19.9/22.6 g; Antimetastatic Percentage % ([7]; Table 2, 100 mg/kg/d ip × 2 qd): 92.41%; Lung Colony (number) mean ± SD ([7]; Table 2, 100 mg/kg/d ip × 2 qd): 3.5 ± 3.7 number; Antimetastatic Percentage % ([7]; Table 5, 15 mg/kg/d ip × 7 qd): 48.11%; Lung Colony (number) mean ± SD ([7]; Table 5, 15 mg/kg/d ip × 7 qd): 26.1 ± 5.2 number; Antimetastatic Percentage % ([7]; Table 5, 30 mg/kg/d ip × 7 qd): 93.44%; Lung Colony (number) mean ± SD ([7]; Table 5, 30 mg/kg/d ip × 7 qd): 3.30 ± 2.6 number; Mean Tumor weight (g, mean ± SD) ([3]; 10 × 3 mg/kg/d): 0.89 ± 0.29 g; Tumor Inhibition Percentage (%) ([3]; 10 × 3 mg/kg/d): 56.52%; Life Extension Percentage T/C × % [8]: 157.53%; Mean Survival Time (d) mean ± SD [8]: 34.50 ± 4.0 days

**Q.** For `N.N.[Cl][Pt][Cl]` [PDD], which “Mean Tumor weight (g, mean ± SD)” value ([3]; 1 × 3 mg/kg/d) is on record?
**A.** 1.09 ± 0.30 g

**Q.** And the “Tumor Inhibition Percentage (%)” value ([3]; 1 × 3 mg/kg/d)?
**A.** 40.76%
